# Source: US7122335B1, “Compounds and methods to enhance rAAV transduction” (priority 1999, dated 2006)
# “Also recorded” adds a separate entry of the source. Peptide text beside a SMILES is read from it. * marks the point of attachment. Cbz = O=C(OCc1ccccc1)*
# How the values were obtained:
# [1] = test system: polarized human bronchial epithelial cells; assay type: cell-based
# Method: FIGS. 7A and 7B. Proteasome inhibitors differentially augment rAAV transduction from the apical or basolateral surfaces of airway epithelia. The efficiency and time course of rAAV transduction were evaluated in polarized airway epithelial cultures following infection with rAV.GFPori3 (MOI=10,000 particles/cell) in the presence or absence of 40 μM LLnL. Transgene expression was monitored by indirect fluorescence microscopy at the indicted time points by quantifying the mean number of GFP positive cells per 10× field (mean +/−SEM of 3 independent samples for each time point). The effect of LLnL treatment was compared between matched sets of tissue samples at each time point following infection from the apical (FIG. 7A) or basolateral (FIG. 7B) surfaces. The photomicrographs on the right side of each figure illustrate representative 20× fields for the 3 and 22 day post-infection time points.
# FIG. 9. Effects of different agents on AAV transduction from the basal surface of polarized bronchial epithelia. Fully differentiated human bronchial airway epithelia were treated with the indicated agents at the time of AAV infection (MOI=10,000 particles/cell) from the basolateral surface. […] Since most of the tested agents (except for hydroxyurea) were dissolved in DMSO, a vehicle control of 1% (vol/vol) DMSO was also performed to exclude the possibility of a non-specific effect. GFP expression was monitored at 48 hours post-infection by counting the number of GFP positive cells per 10 random 10× fields in the culture dishes. The data represent the mean +/−SEM of three independent infections for each tested chemical.
# FIG. 10. The proteasome inhibitor LLnL preferentially induces AAV transduction in ciliated cells. The cell types transduced by AAV were examined by alkaline phosphatase staining 3 days following basolateral infection of polarized epithelial cultures with AV.Alkphos infection (MOI=10,000 particles/cell) in the presence of or absence of 40 μM LLnL. […] 8 μm paraffin sections were used to histologically quantify the types of cells transduced. Three classifications were used, ciliated cells (with alkphos expression localized to the apical membrane and cilia), basal cells residing in the lower half of the epithelium with no contact with the lumen, and non-ciliated, columnar cells. Panel C (without LLnL) and D (with LLnL) show representative neutral red counter-stained cross-sections for each condition. The numbers of alkphos stained cells/2000 epithelial cells for the various cell types transduced by AAV are presented in panel E (mean +/−SEM from three independent Millicell insert samples).
# FIGS. 11A and 11B. Optimization of LLnL-enhanced transduction in polarized bronchial epithelia. Differentiated transwell cultures were infected with AV.GFP3ori (10,000 particles/cell) from either the basolateral (FIG. 11A) or the apical (FIG. 11B) surface with the indicated treatments involving LLnL and/or EGTA. All infections were carried out for 24 hours and GFP transgene expression was monitored by indirect fluorescent microscopy at the indicated times. Data represent the mean (+/−SEM, N=6) for each experimental condition. Experiments were performed in triplicate on transwells derived from samples obtained from two different patients. […]
# [2] = test system: polarized human airway epithelia; assay: In situ localization of S35-labeled rAAV particles (photoemulsion, morphometry); assay type: cell-based; conditions: 2 hours post-infection, apical or basolateral infection
# Method: FIG. 13. In situ localization of rAAV in the polarized airway epithelia using S^35 labeled virus. Polarized human airway epithelia were infected with S^35-labeled virus (MOI=50,000 particles/cell) from either the apical or basolateral side (+/−LLnL). At 2 hours post-infection, transwells were washed with media three times and fixed in 4% paraformaldehyde overnight prior to cryoprotection in sucrose and OCT embedding. 10 μm frozen sections were overlaid with photoemulsion and developed after 5 weeks of exposure. Panel A depicts the typical localization pattern following basolateral infection in the presence of LLnL. Arrows indicate nuclear-associated virus. Panel B presents enlargements of boxed regions in Panel A. Blinded morphometric quantification was performed by counting the number of nuclear-associated and cytoplasmic radioactive grains of 10 random fields, as shown in Panel A. A total of 60 cells was quantitated per field, to give a total of 600 cells per sample and 2400 cells per condition. Results in Panel C are the mean +/−SEM of four independent samples for each condition.
# Cryosections of polarized airway epithelial cells infected with ^35S-labeled AV.GFP3ori (MOI=50,000 particles/cell) from the apical or basolateral sides in the presence or absence of LLnL were overlaid with photographic emulsion and exposed for 5 weeks prior to developing. […]
# Solubility in ethanol = assay type: physicochemical
# mouse liver = assay: rAAV (AV.Alkphos) gene transfer in mouse liver in vivo, portal vein; parameters: species or system C57B6 mice
# Method: FIG. 19. […] Recombinant AV.Alkphos (5×10^10 particles) was administered to mouse liver either as virus alone in PBS, virus in combination with 40 μM Z-LLL in PBS, or virus in combination with 200 μM LLnL in PBS. Virus was directly instilled into portal vein of the C57B6 mice. AAV-mediated alkaline phosphatase transgene expression was evaluated by histology staining at 2 and 4 weeks post-infection in frozen tissue sections. The average percentage of the alkphos positive cells in all 6 liver lobes of each individual animal was quantified by NIH image analysis software. The data represents the mean (+/−SEM) of 3 independent mice for each time point in each group.
# Recombinant AV.Alkphos (5×10^10 particles) was also administered to mouse liver either as virus alone in PBS, virus in combination with 40 μM Z-LLL in PBS, or virus in combination with 20 μM LLnL in PBS. Virus was directly instilled into portal vein of the C57B6 mice. AAV-mediated alkaline phosphatase transgene expression was evaluated by histology staining at 2 and 4 weeks post infection in frozen tissue sections ([…]).
Molecule,time of peak augmentation in AAV transduction ([1]; LLnL and rAAV co-administered to the mucosal surface),"maximal level of transgene expression relative to basal infection ([1]; apical infection with LLnL, by 30 days)","enhancement in rAAV transduction from the basolateral surface ([1]; basolateral (serosal) infection MOI 10,000, agent at time of infection, GFP at 48 hours/2 days, camptothecin 0.1 μM, etoposide 10 μM, hydroxyurea 40 mM, genistein 50 μM, LLnL 40 μM)","effect of repeated LLnL administration on transgene expression ([1]; basolateral infection, LLnL once every three days)",toxicity to cultured airway cells ([1]; continual exposure to 40 μM LLnL in basal medium after basolateral infection),time of transient peak in gene expression ([1]; rAAV infection from the serosal surface in the presence of LLnL),"AV.Alkphos transduction ([1]; serosal application of AV.Alkphos, 40 μM LLnL, 3 days)",intracellular distribution of radiolabeled rAAV particles (nuclear vs cytoplasmic grains) [2],solubility in ethanol (Solubility in ethanol),"AAV-mediated gene transfer in mouse liver, in words (mouse liver; 40 μM Z-LLL co-administered, 2 and 4 weeks)",increase in rAAV transduction in the liver (mouse liver; 1 month post-infection)
N-acetyl-L-leucinyl-L-leucinal-L-norleucinal [LLnL],22 days post-infection,one eighth,greater than 200 fold,increased length of peak transgene expression,toxic to cells and ablated transgene expression by 10 days,72 hours post-infection,dramatic increase in AV.Alkphos transduction,significant increase in nuclear trafficking; also recorded: significant shift to nuclear associated grains,poor solubility,,
"CC(C)C[C@@H](C=O)NC(=O)[C@H](CC(C)C)NC(=O)[C@H](CC(C)C)NC(=O)OCc1ccccc1 [Z-LLL, N-carbobenzoxyl-L-leucinyl-L-leucinyl-L-leucinal] (Cbz-Leu-Leu-Leu-aldehyde)",,,,,,,,,,enhances AAV-mediated gene transfer,7 fold
